# According to the kinase profiling compilation of Christmann-Franck et al. (2016):
# Tests used:
# Experiment in all cases: KINOMEscan competition binding
# Conditions in all cases: compound 10.0 µM
# [1] = target: ACVR2A (human) (UniProt P27037)
# [2] = target: BMPR2 (human) (UniProt Q13873)
# [3] = target: BMX (human) (UniProt P51813)
# [4] = target: BRAF (human) (UniProt P15056)
# [5] = target: CAMKK2 (human) (UniProt Q96RR4)
# [6] = target: CDC42BPB (human) (UniProt Q9Y5S2)
# [7] = target: CHEK1 (human) (UniProt O14757)
# CHEK1 (human), sequence (O14757 whole entry, looked up): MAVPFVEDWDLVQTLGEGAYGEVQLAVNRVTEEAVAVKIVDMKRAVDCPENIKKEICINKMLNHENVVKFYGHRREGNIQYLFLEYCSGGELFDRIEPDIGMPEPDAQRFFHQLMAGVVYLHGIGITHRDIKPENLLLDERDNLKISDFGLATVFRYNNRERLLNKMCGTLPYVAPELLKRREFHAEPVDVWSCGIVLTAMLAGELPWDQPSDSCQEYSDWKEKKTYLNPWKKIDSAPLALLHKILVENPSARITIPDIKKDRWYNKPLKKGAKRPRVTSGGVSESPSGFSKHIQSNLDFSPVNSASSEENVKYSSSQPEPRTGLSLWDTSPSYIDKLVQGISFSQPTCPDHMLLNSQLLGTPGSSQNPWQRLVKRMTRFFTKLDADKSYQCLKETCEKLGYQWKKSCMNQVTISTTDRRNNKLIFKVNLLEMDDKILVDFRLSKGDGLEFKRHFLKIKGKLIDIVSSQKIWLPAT
# [8] = target: CLK2 (human) (UniProt P49760)
# [9] = target: CLK4 (human) (UniProt Q9HAZ1)
# [10] = target: CSK (human) (UniProt P41240)
# [11] = target: CSNK1G1 (human) (UniProt Q9HCP0)
# [12] = target: DAPK2 (human) (UniProt Q9UIK4)
# [13] = tested on: EGFR (human), P00533 [P753S; 747-752 del]
# [14] = tested on: EGFR (human), P00533 [T790M]
# [15] = target: EPHA3 (human) (UniProt P29320)
# [16] = target: EPHA6 (human) (UniProt Q9UF33)
# EPHA6 (human), sequence (Q9UF33 whole entry, looked up): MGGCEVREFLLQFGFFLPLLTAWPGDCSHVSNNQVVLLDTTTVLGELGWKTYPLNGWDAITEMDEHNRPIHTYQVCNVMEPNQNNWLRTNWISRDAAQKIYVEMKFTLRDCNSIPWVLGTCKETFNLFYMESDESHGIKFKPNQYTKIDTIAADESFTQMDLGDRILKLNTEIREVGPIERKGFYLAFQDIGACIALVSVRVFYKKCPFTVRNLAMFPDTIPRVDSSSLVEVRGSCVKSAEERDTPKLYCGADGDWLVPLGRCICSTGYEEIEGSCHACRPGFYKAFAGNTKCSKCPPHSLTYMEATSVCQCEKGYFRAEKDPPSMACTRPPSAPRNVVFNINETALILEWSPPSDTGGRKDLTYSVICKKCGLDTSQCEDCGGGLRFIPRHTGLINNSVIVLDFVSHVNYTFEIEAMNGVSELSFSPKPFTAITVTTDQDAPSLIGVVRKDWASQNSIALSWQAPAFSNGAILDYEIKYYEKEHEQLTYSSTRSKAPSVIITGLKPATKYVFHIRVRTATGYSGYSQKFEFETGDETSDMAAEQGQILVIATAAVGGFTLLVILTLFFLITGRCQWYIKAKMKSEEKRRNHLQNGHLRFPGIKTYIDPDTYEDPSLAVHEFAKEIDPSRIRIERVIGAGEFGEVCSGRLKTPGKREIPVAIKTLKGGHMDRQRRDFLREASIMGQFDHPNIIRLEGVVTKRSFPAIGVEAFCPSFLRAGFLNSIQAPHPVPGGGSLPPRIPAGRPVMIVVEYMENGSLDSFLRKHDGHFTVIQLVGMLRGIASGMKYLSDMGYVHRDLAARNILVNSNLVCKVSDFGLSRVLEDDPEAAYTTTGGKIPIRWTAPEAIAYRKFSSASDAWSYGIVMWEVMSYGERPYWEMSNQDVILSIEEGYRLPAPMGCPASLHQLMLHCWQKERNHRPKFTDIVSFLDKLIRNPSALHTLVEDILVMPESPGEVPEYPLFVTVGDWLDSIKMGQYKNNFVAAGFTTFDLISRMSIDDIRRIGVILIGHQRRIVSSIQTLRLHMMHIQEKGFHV
# [17] = target: FGFR2 (human) (UniProt P21802)
# [18] = target: FRK (human) (UniProt P42685)
# [19] = target: IRAK3 (human) (UniProt Q9Y616)
# [20] = tested on: KIT (human), P10721 [V559D/V654A]
# [21] = target: MAP2K2 (human) (UniProt P36507)
# [22] = target: MAP2K3 (human) (UniProt P46734)
# [23] = target: MAP3K13 (human) (UniProt O43283)
# [24] = target: MAP4K2 (human) (UniProt Q12851)
# [25] = target: MAP4K3 (human) (UniProt Q8IVH8)
# [26] = target: MAPK7 (human) (UniProt Q13164)
# [27] = target: MAST1 (human) (UniProt Q9Y2H9)
# [28] = target: MYLK (human) (UniProt Q15746)
# [29] = target: MYO3A (human) (UniProt Q8NEV4)
# [30] = target: NEK2 (human) (UniProt P51955)
# [31] = target: PIM2 (human) (UniProt Q9P1W9)
# [32] = target: PIP5K1A (human) (UniProt Q99755)
# [33] = target: PRKD3 (human) (UniProt O94806)
# [34] = target: ROCK2 (human) (UniProt O75116)
# [35] = target: RPS6KA2 KD1 (human) (UniProt Q15349)
# [36] = target: SRC (human) (UniProt P12931)
# [37] = target: STK24 (human) (UniProt Q9Y6E0)
# [38] = target: STK35 (human) (UniProt Q8TDR2)
# [39] = target: TAOK2 (human) (UniProt Q9UL54)
# [40] = target: TRPM6 (human) (UniProt Q9BX84)
# TRPM6 (human), sequence (Q9BX84 whole entry, looked up): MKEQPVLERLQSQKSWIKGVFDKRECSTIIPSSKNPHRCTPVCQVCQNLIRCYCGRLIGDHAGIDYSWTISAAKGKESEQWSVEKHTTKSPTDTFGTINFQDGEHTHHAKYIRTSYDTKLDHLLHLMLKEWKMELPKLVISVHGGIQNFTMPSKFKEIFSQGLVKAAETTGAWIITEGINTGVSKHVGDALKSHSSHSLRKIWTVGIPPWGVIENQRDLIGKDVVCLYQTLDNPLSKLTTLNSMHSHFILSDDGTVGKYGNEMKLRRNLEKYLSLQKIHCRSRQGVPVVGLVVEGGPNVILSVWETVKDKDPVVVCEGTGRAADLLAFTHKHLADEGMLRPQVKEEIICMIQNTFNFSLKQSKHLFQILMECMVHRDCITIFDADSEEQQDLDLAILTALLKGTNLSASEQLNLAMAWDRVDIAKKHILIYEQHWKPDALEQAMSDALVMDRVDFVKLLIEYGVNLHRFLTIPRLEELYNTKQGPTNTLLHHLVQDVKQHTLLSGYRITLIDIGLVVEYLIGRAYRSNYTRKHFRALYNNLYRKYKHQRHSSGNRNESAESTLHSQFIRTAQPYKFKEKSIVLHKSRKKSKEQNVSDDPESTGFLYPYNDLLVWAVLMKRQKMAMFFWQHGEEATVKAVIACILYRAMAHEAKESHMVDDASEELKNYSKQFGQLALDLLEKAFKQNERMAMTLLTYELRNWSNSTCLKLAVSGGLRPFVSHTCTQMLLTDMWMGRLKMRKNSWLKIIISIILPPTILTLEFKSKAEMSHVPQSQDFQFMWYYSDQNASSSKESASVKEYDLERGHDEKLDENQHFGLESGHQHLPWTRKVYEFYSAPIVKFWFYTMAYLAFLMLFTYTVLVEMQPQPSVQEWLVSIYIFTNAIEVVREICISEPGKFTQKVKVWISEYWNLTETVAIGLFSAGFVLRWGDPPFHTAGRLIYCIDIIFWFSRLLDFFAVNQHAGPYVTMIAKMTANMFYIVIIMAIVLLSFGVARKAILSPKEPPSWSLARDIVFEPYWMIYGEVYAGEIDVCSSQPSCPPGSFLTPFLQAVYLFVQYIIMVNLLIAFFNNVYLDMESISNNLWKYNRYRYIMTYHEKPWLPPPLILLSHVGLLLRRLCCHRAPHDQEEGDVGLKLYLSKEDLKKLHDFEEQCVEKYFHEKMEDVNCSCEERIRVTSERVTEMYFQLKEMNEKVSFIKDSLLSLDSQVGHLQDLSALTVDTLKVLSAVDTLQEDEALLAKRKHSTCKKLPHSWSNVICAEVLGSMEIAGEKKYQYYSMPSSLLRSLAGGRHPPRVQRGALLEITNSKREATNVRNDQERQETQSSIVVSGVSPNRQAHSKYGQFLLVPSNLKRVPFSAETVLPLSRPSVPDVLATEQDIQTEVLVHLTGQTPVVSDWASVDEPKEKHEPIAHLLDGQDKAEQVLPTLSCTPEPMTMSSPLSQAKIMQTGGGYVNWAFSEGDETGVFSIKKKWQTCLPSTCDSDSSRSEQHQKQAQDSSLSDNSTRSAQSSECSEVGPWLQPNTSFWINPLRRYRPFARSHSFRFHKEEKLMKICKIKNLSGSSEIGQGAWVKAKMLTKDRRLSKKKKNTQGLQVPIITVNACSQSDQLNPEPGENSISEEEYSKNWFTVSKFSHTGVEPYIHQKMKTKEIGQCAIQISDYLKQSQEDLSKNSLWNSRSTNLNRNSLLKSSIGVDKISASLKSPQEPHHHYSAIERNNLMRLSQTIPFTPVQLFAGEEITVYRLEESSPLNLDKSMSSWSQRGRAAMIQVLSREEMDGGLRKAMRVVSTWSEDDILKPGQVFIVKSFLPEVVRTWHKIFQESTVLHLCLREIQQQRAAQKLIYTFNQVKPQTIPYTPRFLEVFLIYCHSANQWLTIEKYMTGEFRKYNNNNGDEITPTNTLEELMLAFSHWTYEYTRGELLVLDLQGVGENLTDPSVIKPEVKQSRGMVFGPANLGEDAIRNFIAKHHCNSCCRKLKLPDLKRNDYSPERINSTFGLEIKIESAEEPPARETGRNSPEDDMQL
# [41] = target: TYRO3 (human) (UniProt Q06418)
# TYRO3 (human), sequence (Q06418 whole entry, looked up): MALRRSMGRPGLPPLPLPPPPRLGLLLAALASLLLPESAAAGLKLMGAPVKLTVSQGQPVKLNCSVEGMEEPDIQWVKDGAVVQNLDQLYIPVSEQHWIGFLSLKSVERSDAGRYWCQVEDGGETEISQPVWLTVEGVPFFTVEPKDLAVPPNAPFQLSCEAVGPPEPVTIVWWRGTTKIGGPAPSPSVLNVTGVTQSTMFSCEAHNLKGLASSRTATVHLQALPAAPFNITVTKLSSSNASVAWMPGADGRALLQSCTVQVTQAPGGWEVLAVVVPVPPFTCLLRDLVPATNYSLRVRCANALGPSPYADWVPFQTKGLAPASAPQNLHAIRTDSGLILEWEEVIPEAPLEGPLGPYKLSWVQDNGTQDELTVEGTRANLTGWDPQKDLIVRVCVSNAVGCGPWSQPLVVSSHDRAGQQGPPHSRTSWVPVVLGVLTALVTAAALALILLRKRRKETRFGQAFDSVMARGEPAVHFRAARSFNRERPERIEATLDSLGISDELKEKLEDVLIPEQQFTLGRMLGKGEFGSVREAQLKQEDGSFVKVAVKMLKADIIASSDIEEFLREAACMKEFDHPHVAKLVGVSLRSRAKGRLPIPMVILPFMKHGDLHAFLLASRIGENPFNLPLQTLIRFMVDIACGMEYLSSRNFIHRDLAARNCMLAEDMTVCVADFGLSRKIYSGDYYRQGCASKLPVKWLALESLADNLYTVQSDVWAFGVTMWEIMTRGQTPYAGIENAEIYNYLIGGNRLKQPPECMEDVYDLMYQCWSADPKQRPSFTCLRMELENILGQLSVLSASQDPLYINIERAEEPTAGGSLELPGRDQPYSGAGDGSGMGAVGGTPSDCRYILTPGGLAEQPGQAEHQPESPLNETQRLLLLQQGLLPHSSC
# ACVR2A (human), sequence (P27037 whole entry, looked up): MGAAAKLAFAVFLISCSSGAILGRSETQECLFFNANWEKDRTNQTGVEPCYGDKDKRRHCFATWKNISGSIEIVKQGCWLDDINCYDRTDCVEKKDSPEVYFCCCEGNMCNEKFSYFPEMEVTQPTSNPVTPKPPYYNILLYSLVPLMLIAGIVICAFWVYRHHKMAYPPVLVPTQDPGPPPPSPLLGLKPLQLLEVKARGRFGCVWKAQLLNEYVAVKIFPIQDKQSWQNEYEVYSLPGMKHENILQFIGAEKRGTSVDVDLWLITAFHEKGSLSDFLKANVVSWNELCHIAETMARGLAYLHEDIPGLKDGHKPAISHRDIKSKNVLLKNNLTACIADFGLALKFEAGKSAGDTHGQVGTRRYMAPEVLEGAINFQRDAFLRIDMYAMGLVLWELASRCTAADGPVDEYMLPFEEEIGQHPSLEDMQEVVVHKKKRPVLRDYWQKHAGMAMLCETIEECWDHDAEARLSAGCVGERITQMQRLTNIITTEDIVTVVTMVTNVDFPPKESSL
structure (smiles),measurement,setting,value
COc1cc(C(=O)N2CCC(N3CCN(C)CC3)CC2)ccc1Nc1ncc2c(n1)N(C)c1ccccc1C(=O)N2C,"kinase still bound, per cent of control",[1],100%
same,"kinase still bound, per cent of control",[2],100%
same,"kinase still bound, per cent of control",[3],87%
same,"kinase still bound, per cent of control",[4],81%
same,"kinase still bound, per cent of control",[5],31%
same,"kinase still bound, per cent of control",[6],100%
same,"kinase still bound, per cent of control",[7],100%
same,"kinase still bound, per cent of control",[8],72%
same,"kinase still bound, per cent of control",[9],54%
same,"kinase still bound, per cent of control",[10],90%
same,"kinase still bound, per cent of control",[11],100%
same,"kinase still bound, per cent of control",[12],67%
same,"kinase still bound, per cent of control",[13],84%
same,"kinase still bound, per cent of control",[14],88%
same,"kinase still bound, per cent of control",[15],100%
same,"kinase still bound, per cent of control",[16],89%
same,"kinase still bound, per cent of control",[17],95%
same,"kinase still bound, per cent of control",[18],34%
same,"kinase still bound, per cent of control",[19],100%
same,"kinase still bound, per cent of control",[20],100%
same,"kinase still bound, per cent of control",[21],99%
same,"kinase still bound, per cent of control",[22],75%
same,"kinase still bound, per cent of control",[23],100%
same,"kinase still bound, per cent of control",[24],100%
same,"kinase still bound, per cent of control",[25],71%
same,"kinase still bound, per cent of control",[26],0.05%
same,"kinase still bound, per cent of control",[27],100%
same,residual activity,[28],8.7%
same,"kinase still bound, per cent of control",[29],94%
same,"kinase still bound, per cent of control",[30],100%
same,"kinase still bound, per cent of control",[31],100%
same,"kinase still bound, per cent of control",[32],90%
same,"kinase still bound, per cent of control",[33],42%
same,"kinase still bound, per cent of control",[34],87%
same,"kinase still bound, per cent of control",[35],83%
same,"kinase still bound, per cent of control",[36],100%
same,"kinase still bound, per cent of control",[37],87%
same,"kinase still bound, per cent of control",[38],100%
same,"kinase still bound, per cent of control",[39],65%
same,"kinase still bound, per cent of control",[40],100%
same,"kinase still bound, per cent of control",[41],100%
